Molecules are shown by their SMILES. Inconclusive results are not listed. Calls of active or inactive are those of the source. The rule behind the calls is not given here.

Coagulation factor XI (Homo sapiens), sequence (P03951 19-387 limits assumed): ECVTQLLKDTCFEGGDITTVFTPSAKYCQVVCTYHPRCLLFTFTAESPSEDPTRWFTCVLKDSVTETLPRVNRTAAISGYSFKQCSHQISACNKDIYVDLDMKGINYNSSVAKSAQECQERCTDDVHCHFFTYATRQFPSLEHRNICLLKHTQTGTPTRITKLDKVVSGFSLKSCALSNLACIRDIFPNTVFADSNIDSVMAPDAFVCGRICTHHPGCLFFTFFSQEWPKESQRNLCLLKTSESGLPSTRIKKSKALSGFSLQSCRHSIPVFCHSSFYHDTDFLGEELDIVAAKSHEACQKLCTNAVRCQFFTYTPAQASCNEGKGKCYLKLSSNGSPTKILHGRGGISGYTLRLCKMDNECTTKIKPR
Coagulation factor XI (Homo sapiens), sequence (P03951 388-625 limits assumed): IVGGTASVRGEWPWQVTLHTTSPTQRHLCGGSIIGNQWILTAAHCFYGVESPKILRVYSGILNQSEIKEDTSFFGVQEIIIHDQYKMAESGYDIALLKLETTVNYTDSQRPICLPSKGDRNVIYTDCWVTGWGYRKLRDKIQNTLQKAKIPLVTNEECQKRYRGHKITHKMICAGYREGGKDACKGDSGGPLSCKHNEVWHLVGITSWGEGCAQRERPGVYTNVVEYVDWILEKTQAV

The assay has as its target Coagulation factor XI (Homo sapiens) (UniProt P03951). The assay can be described thus: factor XIa inhibitor concentration-response – biochemical, hits from 1536-well screen, dose response (AID 846). As to conditions: purified human plasma factor XIa, fluorogenic AMC substrate, 384-well, 2 h.
Turning to `Brc1cccc(/C=N/Nc2nn[nH]n2)c1`, the IC50 is > 50 µM (inactive). Regarding `Cc1cccc(NC(=O)c2cc(N3C(=O)CCC3=O)ccc2Cl)n1`, the IC50 was > 50 µM (inactive). The value for `C=CCOC(=O)C1=C(C)Nc2[nH]c(=O)[nH]c(=O)c2C1c1ccccc1` (stereo not drawn) was > 50 µM (inactive); that for `Oc1ccc(/C=N/Nc2nc(-c3cccnc3)nc3ccccc23)c(O)c1` was > 50 µM (inactive); that for `O=C1CC(Sc2ccc(Cl)cc2)C(=O)N1c1ccc2c(c1)OCCO2` (stereo not drawn) was > 50 µM (inactive). As for `COc1cc(/C=N/Nc2cc(C)nc(NS(=O)(=O)c3ccccc3)n2)ccc1O`, the IC50 was > 50 µM (inactive). To `O=C1CC(N2CCC(c3nc4ccccc4o3)CC2)C(=O)N1c1ccc(Cl)c(C(F)(F)F)c1` (stereo not drawn) belongs > 50 µM (inactive); to `CCc1ccccc1N1C(=O)CC(=O)NC1=O`, > 50 µM (inactive).

The record behind these values is PubChem BioAssay AID846 (PCMD, 2007).
